Measurements taken from US20070134688A1, “CALCULATED INDEX OF GENOMIC EXPRESSION OF ESTROGEN RECEPTOR (ER) AND ER-RELATED GENES” (THE BOARD OF REGENTS OF THE UNIVERSITY OF TEXAS SYSTEM, priority 2005, published 2007).

Columns and labels:
ER-positive cancer = details: compared to placebo, cited from earlier work
[1] = system: ER-positive breast cancer; assay: Distant relapse-free survival after adjuvant tamoxifen; assay type: in vivo, human; details: ER-positive patients on adjuvant tamoxifen
Experimental: Patients and Samples. […] At MDACC, pre-treatment fine needle aspiration (FNA) samples of primary breast cancer were obtained using a 23-gauge needle and the cells from 1-2 passes were collected into a vial containing 1 ml of RNAlater™ solution (Ambion, Austin Tex.) and stored at −80° C. until use, whereas archival frozen samples were evaluated from resected, metastatic, ER-positive breast cancer. All patients signed an informed consent for voluntary participation to collect samples for research. At other institutions, fresh tissue samples of surgically resected primary breast cancer were frozen in OCT compound and stored at −80° C.
Statistical Analysis of Distant relapse-free survival (DRFS). Distant relapse-free survival (DRFS) was defined as the interval from breast surgery until diagnosis of distant metastasis. Covariate effects on distant relapse risk after tamoxifen treatment were evaluated using log-rank test in multivariate Cox proportional hazards models stratified by institution. […] Confidence intervals of the survival estimate were calculated based on the Tsiatis variance estimates of the cumulative log-hazards (Therneau and Grambsch, 2000). […]

N#Cc1ccc(C(c2ccc(C#N)cc2)n2cncn2)cc1 [letrozole]
relative reduction in deaths (ER-positive cancer; after 2.4 years, after 5 years of adjuvant tamoxifen): 24% | absolute difference in recurrence or new primaries (ER-positive cancer; at 2.4 years): 2.2%

CC/C(=C(\c1ccccc1)c1ccc(OCCN(C)C)cc1)c1ccccc1 [tamoxifen]
mean relapse-free survival at 10 years ([1]; SET index<2): 57.1% | mean relapse-free survival at 10 years ([1]; SET index>5): 90.0%
